As a reminder, the IC50 is the concentration that gives 50% inhibition.

Molecules are shown by their SMILES.

This assay relates to erbB2 phosphorylation in MCF7-derived cell line (MCF7 유래의 세포주에서 erbB2의 인산화). Nature of the assay: Test (c): clone 24 phospho-erbB2 cell assay. The class given is cell-based. The conditions noted are these: Homo sapiens, clone 24 cells (MCF7-derived, overexpressing full-length erbB2), read-out: IC50 test (c): inhibition of erbB2 tyrosine kinase protein phosphorylation.
Regarding `CN(C)CC(=O)N1CCC(Oc2ccc3ncnc(Nc4ccc(OCc5cnccn5)c(Cl)c4)c3c2)CC1` [실시예 9, N-[3-클로로-4-(피라진-2-일메톡시)페닐]-6-({1-[(디메틸아미노)아세틸]피페리딘-4-일}옥시)퀴나졸린-4-아민], the IC50 was 150 nM.

For `CS(=O)(=O)N1CCC(COc2ccc3ncnc(Nc4ccc(OCc5ccccn5)c(Cl)c4)c3c2)C1` (stereo not drawn) [실시예 14, N-[3-클로로-4-(피리딘-2-일메톡시)페닐]-6-{[1-(메틸술포닐)피롤리딘-3-일]메톡시}퀴나졸린-4-아민], the IC50 is 4 nM. Take `CN(C)CC(=O)N1CCC(Oc2ccc3ncnc(Nc4ccc(OCc5ccccn5)c(Cl)c4)c3c2)CC1` [실시예 8, N-[3-클로로-4-(피리딘-2-일메톡시)페닐]-6-({1-[(디메틸아미노)아세틸]피페리딘-4-일}옥시)퀴나졸린-4-아민]: the IC50 stood at 210 nM.
